Values of other authors as cited in article PMC4284021 (The Journal of Pharmacy and Pharmacology, 2014).

What was measured:
patients [1] = settings: cited from earlier work
CETP = settings: cited from earlier work
patients [2] = settings: cited from earlier work; remark: listed apart in the source
patients [3] = settings: cited from earlier work; remark: listed apart in the source
[4] = test system: CYP11B1 (steroid 11 β-hydroxylase) and CYP11B2 (aldosterone synthase); settings: branched DNA analysis; cited from earlier work

Compound: COc1cc(F)c(C(C)C)cc1-c1ccc(C(F)(F)F)cc1CN1C(=O)O[C@H](c2cc(C(F)(F)F)cc(C(F)(F)F)c2)[C@@H]1C [anacetrapib]
- plasma concentrations after cessation of treatment (patients [1]; 12 weeks after cessation): significant plasma concentrations
- changes in blood pressure or electrolyte or aldosterone levels (patients [1]; through 76 weeks): no changes were noted
- time of peak CETP inhibition after dosing (CETP): 4 h

Compound: CCC(CC)CC1(C(=O)Nc2ccccc2SC(=O)C(C)C)CCCCC1 [dalcetrapib]
- mean systolic blood pressure higher than in the placebo group (patients [2]): approximately 0.6 mmHg

Compound: CCOC(=O)N1c2ccc(C(F)(F)F)cc2[C@@H](N(Cc2cc(C(F)(F)F)cc(C(F)(F)F)c2)C(=O)OC)C[C@H]1CC [torcetrapib]
- blood pressure and aldosterone levels (patients [3]): increases in blood pressure and aldosterone levels
- mortality and CV events (patients [3]): excess risk
- expression of genes regulating CYP11B1 and CYP11B2 [4]: induced expression
